Earlier results as cited in patent US20230390221A1, “PHARMACEUTICAL COMPOSITIONS WITH LOW AMOUNTS OF NITROSAMINE IMPURITIES AND METHODS FOR PRODUCING THE SAME” (Zentiva K.S., priority 2020, published 2023).

Conditions: limit set by EMA or FDA

CN(C)N=O [NDMA, N-nitrosodimethylamine]
acceptable daily limits: 96 ng/day

CCN(CC)N=O [NDEA, N-nitrosodiethylamine]
acceptable daily limits: 26.5 ng/day
